Experiments:
[1] = mechanically ventilated adult patients with moderate-to-severe ARDS, confirmed Covid-19 infection; cited from earlier work
primary HIV-1 isolated = experiment: HIV-1 replication in MT2 cell line assays; format: cell-based
Procedure: The total destruction of the viral culture was observed from concentrations of 25 μg/ml of TMA's Maslinic acid, while between 5 and 20 μg/ml, a decrease in viability was observed between 57% and 19%.

murine macrophages = details: cited from earlier work
HIV-1 protease = HIV-1 protease (Human immunodeficiency virus type 1 group M subtype B, UniProt P04585); details: in vitro; cited from earlier work
[2] = in vivo, cited from earlier work

| SMILES | effectiveness, share of cases [1] [%] | concentration giving total destruction of the viral culture (primary HIV-1 isolated) [µg/mL] | cytopathic effect (primary HIV-1 isolated; MT2 cell line, 25 μg/ml) | level of p24 antigen in the culture supernatant (primary HIV-1 isolated; MT2 cell line, 25 μg/ml) | cytopathic effect (primary HIV-1 isolated; MT2 cell line, 30 μg/ml) | p24 antigen (primary HIV-1 isolated; MT2 cell line, 30 μg/ml) | inhibitory effect on replication (primary HIV-1 isolated; between 5 and 20 μg/ml, cultures infected with different amounts of HIV-1) | pro-inflammatory cytokine generation (murine macrophages) | activity against the enzyme isolated from the HIV-1 protease (HIV-1 protease) | bioavailability (in vivo) [%] | bioavailability compared ([2]; human) | values in the biological fluids [2] |
| --- | --- | --- | --- | --- | --- | --- | --- | --- | --- | --- | --- | --- |
| C[C@@H]1C[C@H]2[C@@H]3CCC4=CC(=O)C=C[C@]4(C)[C@@]3(F)[C@@H](O)C[C@]2(C)[C@@]1(O)C(=O)CO [Dexametasone] | 33 |  |  |  |  |  |  |  |  |  |  |  |
| CC1(C)CC[C@]2(C(=O)O)CC[C@]3(C)C(=CC[C@@H]4[C@@]5(C)C[C@@H](O)[C@H](O)C(C)(C)[C@@H]5CC[C@]43C)[C@@H]2C1 [Maslinic acid, 2-alfa,3-betadihydroxy-28-carboxiolean-12-eno] |  | ≥ 25 | decrease was detected | decrease was detected | absence total cytopathic effect | decrease in p24 antigen | did not produce any inhibitory effect | strong reduction | has in vitro activity | 60 | higher than that of OA | increased in the biological fluids in a dose-dependent manner |
| CC1(C)CC[C@]2(C(=O)O)CC[C@]3(C)C(=CC[C@@H]4[C@@]5(C)CC[C@H](O)C(C)(C)[C@@H]5CC[C@]43C)[C@@H]2C1 [OA, Oleanolic acid] |  |  |  |  |  |  |  |  |  |  |  | increased in the biological fluids in a dose-dependent manner |

From patent US20220008438A1 (priority 2020, published 2022)
